# Data from patent publication US5824315A, “Binding affinity of antigenic peptides for MHC molecules” (Anergen, Inc., priority 1996, dated 1998).
# Tested on: HLA-DR2
# Settings: pH 6
# Experimental: In order to compare the binding of various MBP peptides to DR2, purified DR2 at a concentration of 20 μg/ml was incubated with 50-fold molar excess of Bt-MBP peptides for 72 hours at varying pH, ranging from pH 5-10 binding buffer at 37° C. […] Monoclonal antibody against HLA-DR2 at a concentration of 20 μg/ml and BSA-biotin (with 0.014-1.80 pmoles (0.117-15 ng), were coated in 96-well microtiter plates (Nunc poly-Sorb, Baxter) overnight at 4° C. Plates were blocked with 1% fish gelatin. Prepared HLA-DR2-biotin peptide complexes were applied to the wells in duplicates ranging from 12.5 ng-200 ng (0.21-3.32 pmoles) in appropriate dilution buffers and incubated for 2 hours at room temperature. The wells were washed three times with PBS containing 0.01% Tween-20 to remove unbound peptide. Bound biotinylated peptides were detected colorimetrically using alkaline phosphatase conjugated streptavidin and p-nitrophenyl phosphate (disodium) in 0.1M diethnolamine as a substrate. Wells were read at 405 nm in microliter plate reader (Molecular Devices). The percent of DR2 with bound peptide was calculated using standard BSA-biotin (eight biotin molecules per BSA). Purified HLA-DR2 used in this study contains a mixture of DRB5*0101 and DRB1*1501 beta chains.
# In the first experiment, the binding of MBP(84-102) peptide to purified DR2 was compared with MBP(83-102)Y83 peptide at various pH.
row,percent of DR2 occupied with bound peptide [%],SMILES
1,55,"CC[C@H](C)[C@H](NC(=O)[C@H](CC(N)=O)NC(=O)[C@H](CCCCN)NC(=O)[C@H](Cc1ccccc1)NC(=O)[C@H](Cc1ccccc1)NC(=O)[C@H](Cc1c[nH]cn1)NC(=O)[C@@H](NC(=O)[C@@H](NC(=O)[C@@H]1CCCN1C(=O)[C@H](CC(N)=O)NC(=O)[C@H](CCC(=O)O)NC(=O)[C@H](CC(=O)O)NC(=O)[C@H](CC(=O)O)NC(=O)CCCC[C@@H]1SC[C@@H]2NC(=O)N[C@@H]21)C(C)C)C(C)C)C(=O)N[C@H](C(=O)N[C@H](C(=O)N1CCC[C@H]1C(=O)N[C@@H](CCCNC(=N)N)C(=O)N[C@H](C(=O)N1CCC[C@H]1C(=O)N1CCC[C@H]1C(N)=O)[C@@H](C)O)[C@@H](C)O)C(C)C [MBP(83-102)D83, Bt-DDENPVVHFF KNIVTPRTPP-NH2]"
2,45,"CC[C@H](C)[C@H](NC(=O)[C@H](CC(N)=O)NC(=O)[C@H](CCCCN)NC(=O)[C@H](Cc1ccccc1)NC(=O)[C@H](Cc1ccccc1)NC(=O)[C@H](Cc1c[nH]cn1)NC(=O)[C@@H](NC(=O)[C@@H](NC(=O)[C@@H]1CCCN1C(=O)[C@H](CC(N)=O)NC(=O)[C@H](CCC(=O)O)NC(=O)[C@H](CC(=O)O)NC(=O)CCCC[C@@H]1SC[C@@H]2NC(=O)N[C@@H]21)C(C)C)C(C)C)C(=O)N[C@H](C(=O)N[C@H](C(=O)N1CCC[C@H]1C(=O)N[C@@H](CCCNC(=N)N)C(=O)N[C@H](C(=O)N1CCC[C@H]1C(=O)N1CCC[C@H]1C(N)=O)[C@@H](C)O)[C@@H](C)O)C(C)C [MBP(84-102), Bt-DENPVVHFFK NIVTPRTPP-NH2, reference compound]"

# More lines, now with the values behind:
row,SMILES,percent of DR2 occupied with bound peptide [%]
1,"CC[C@H](C)[C@H](NC(=O)[C@H](CC(N)=O)NC(=O)[C@H](CCCCN)NC(=O)[C@H](Cc1ccccc1)NC(=O)[C@H](Cc1ccccc1)NC(=O)[C@H](Cc1c[nH]cn1)NC(=O)[C@@H](NC(=O)[C@@H](NC(=O)[C@@H]1CCCN1C(=O)[C@H](CC(N)=O)NC(=O)[C@H](CCC(=O)O)NC(=O)[C@H](CC(=O)O)NC(=O)[C@H](C)NC(=O)CCCC[C@@H]1SC[C@@H]2NC(=O)N[C@@H]21)C(C)C)C(C)C)C(=O)N[C@H](C(=O)N[C@H](C(=O)N1CCC[C@H]1C(=O)N[C@@H](CCCNC(=N)N)C(=O)N[C@H](C(=O)N1CCC[C@H]1C(=O)N1CCC[C@H]1C(N)=O)[C@@H](C)O)[C@@H](C)O)C(C)C [MBP(83-102)A83, Bt-ADENPVVHFF KNIVTPRTPP-NH2]",100
2,"CC[C@H](C)[C@H](NC(=O)[C@H](CC(N)=O)NC(=O)[C@H](CCCCN)NC(=O)[C@H](Cc1ccccc1)NC(=O)[C@H](Cc1ccccc1)NC(=O)[C@H](Cc1c[nH]cn1)NC(=O)[C@@H](NC(=O)[C@@H](NC(=O)[C@@H]1CCCN1C(=O)[C@H](CC(N)=O)NC(=O)[C@H](CCC(=O)O)NC(=O)[C@H](CC(=O)O)NC(=O)[C@H](Cc1ccccc1)NC(=O)CCCC[C@@H]1SC[C@@H]2NC(=O)N[C@@H]21)C(C)C)C(C)C)C(=O)N[C@H](C(=O)N[C@H](C(=O)N1CCC[C@H]1C(=O)N[C@@H](CCCNC(=N)N)C(=O)N[C@H](C(=O)N1CCC[C@H]1C(=O)N1CCC[C@H]1C(N)=O)[C@@H](C)O)[C@@H](C)O)C(C)C [MBP(83-102)F83, Bt-FDENPVVHFF KNIVTPRTPP-NH2]",12
3,"CC[C@H](C)[C@H](NC(=O)[C@H](CC(N)=O)NC(=O)[C@H](CCCCN)NC(=O)[C@H](Cc1ccccc1)NC(=O)[C@H](Cc1ccccc1)NC(=O)[C@H](Cc1c[nH]cn1)NC(=O)[C@@H](NC(=O)[C@@H](NC(=O)[C@@H]1CCCN1C(=O)[C@H](CC(N)=O)NC(=O)[C@H](CCC(=O)O)NC(=O)[C@H](CC(=O)O)NC(=O)[C@H](CCCCN)NC(=O)CCCC[C@@H]1SC[C@@H]2NC(=O)N[C@@H]21)C(C)C)C(C)C)C(=O)N[C@H](C(=O)N[C@H](C(=O)N1CCC[C@H]1C(=O)N[C@@H](CCCNC(=N)N)C(=O)N[C@H](C(=O)N1CCC[C@H]1C(=O)N1CCC[C@H]1C(N)=O)[C@@H](C)O)[C@@H](C)O)C(C)C [MBP(83-102)K83, Bt-KDENPVVHFF KNIVTPRTPP-NH2]",75
4,"CC[C@H](C)[C@H](NC(=O)[C@H](CC(N)=O)NC(=O)[C@H](CCCCN)NC(=O)[C@H](Cc1ccccc1)NC(=O)[C@H](Cc1ccccc1)NC(=O)[C@H](Cc1c[nH]cn1)NC(=O)[C@@H](NC(=O)[C@@H](NC(=O)[C@@H]1CCCN1C(=O)[C@H](CC(N)=O)NC(=O)[C@H](CCC(=O)O)NC(=O)[C@H](CC(=O)O)NC(=O)[C@H](CCC(N)=O)NC(=O)CCCC[C@@H]1SC[C@@H]2NC(=O)N[C@@H]21)C(C)C)C(C)C)C(=O)N[C@H](C(=O)N[C@H](C(=O)N1CCC[C@H]1C(=O)N[C@@H](CCCNC(=N)N)C(=O)N[C@H](C(=O)N1CCC[C@H]1C(=O)N1CCC[C@H]1C(N)=O)[C@@H](C)O)[C@@H](C)O)C(C)C [MBP(83-102)Q83, Bt-QDENPVVHFF KNIVTPRTPP-NH2]",40
